# Laboratory results from paper PMC9023744, “The Cytochrome P450 OxyA from the Kistamicin Biosynthesis Cyclization Cascade is Highly Sensitive to Oxidative Damage” (Frontiers in Chemistry, 2022).
# pKd: −log10 of the molar value.
# Legend:
# OxyCkis = target: T1, OxyCkis; assay: UV-visible difference spectroscopy titration, one-site model; type: binding; details: 50 mM Tris-HCl pH 8, 30°C; 2.5 µM enzyme
# T1 construct: gene OxyC; recombinant, expressed in E. coli Arctic Express; Ni-NTA, anion exchange, size exclusion
# OxyAkis = target: T2, OxyAkis ([Actinomadura] parvosata, UniProt A0A1V0AG67); assay: as above; type: binding
# T2 construct: gene BKM31_54160; pET28a, His-tagged, expressed in E. coli Arctic Express; Ni-NTA, anion exchange, size exclusion
# T2 sequence (A0A1V0AG67 entry or part of it): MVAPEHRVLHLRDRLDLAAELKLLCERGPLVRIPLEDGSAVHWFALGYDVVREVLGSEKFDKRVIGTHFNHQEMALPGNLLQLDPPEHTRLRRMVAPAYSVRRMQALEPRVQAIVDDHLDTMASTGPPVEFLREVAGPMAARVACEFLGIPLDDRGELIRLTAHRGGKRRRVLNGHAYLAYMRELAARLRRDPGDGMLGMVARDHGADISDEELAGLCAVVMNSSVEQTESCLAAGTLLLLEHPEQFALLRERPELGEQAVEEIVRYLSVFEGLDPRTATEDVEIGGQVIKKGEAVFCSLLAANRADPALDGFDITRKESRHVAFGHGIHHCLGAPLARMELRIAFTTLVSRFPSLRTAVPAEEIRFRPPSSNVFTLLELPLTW
smiles,measurement,setting,value
c1c[nH]cn1 [imidazole],pKd,OxyCkis,4.08
same,pKd,OxyAkis,3.92
